Test results taken from patent US10370356B2, “Pyridinone dicarboxamide for use as bromodomain inhibitors” (GlaxoSmithKline Intellectual Property (No. 2) Limited, priority 2015, dated 2019).
Where a name gives a salt, the structure may show the parent alone.

Target: T1, BRD4 BD2 (Homo sapiens, UniProt O60885, Y97A)
T1 construct: BRD4 (1-477) (Y97A) and (Y390A); made in house; host or cells: E. coli (pET15b vector)
Assay: BRD4 BD2 mutant TR-FRET competition assay
Assay type: binding
Conditions: average of N recorded values, read-out: BRD4 BD2 IC50 (average value) (converted)

Row | IC50 | Structure (SMILES)
1 | 0.0158 µM | CNC(=O)c1cc(C(=O)NCCC2CCNCC2)cn(Cc2cccc3[nH]ccc23)c1=O [Example 56, 1-((1H-Indol-4-yl)methyl)-N^3-methyl-2-oxo-N5-(2-(piperidin-4-yl)ethyl)-1,2-dihydropyridine-3,5-dicarboxamide]

Same assay, conditions: read-out: pIC50 in the BRD4 BD2 assay (converted)

Row | IC50 | Structure (SMILES)
2 | 0.1 to 1 µM | CNC(=O)c1cc(C(=O)NCCC2CCCCN2)cn(Cc2ccccc2)c1=O (stereo not shown) [Example 40, 1-Benzyl-N^3-methyl-2-oxo-N^5-(2-(piperidin-2-yl)ethyl)-1,2-dihydropyridine-3,5-dicarboxamide hydrochloride]
3 | 1 to 100 µM | CNC(=O)c1cc(C(=O)NC2CCCS(=O)(=O)C2)cn(Cc2ccccc2)c1=O (stereo not shown) [Example 42, 1-Benzyl-N^5-(1,1-dioxidotetrahydro-2H-thiopyran-3-yl)-N^3-methyl-2-oxo-1,2-dihdyropyridine-3,5-dicarboxamide]
4 | 0.1 to 1 µM | CNC(=O)c1cc(C(=O)NC2CCS(=O)(=O)C2)cn(Cc2ccccc2)c1=O (stereo not shown) [Example 43, 1-Benzyl-N^5-(1,1-dioxidotetrahydrothiophen-3-yl)-N^3-methyl-2-oxo-1,2-dihydroypridine-3,5-dicarboxamide]
5 | 0.1 to 1 µM | CNC(=O)c1cc(C(=O)NC2CCS(=O)(=O)CC2)cn(Cc2ccccc2)c1=O [Example 44, 1-Benzyl-N^5-(1,1-dioxidotetrahydro-2H-thiopyran-4-yl)-N^3-methyl-2-oxo-1,2-dihydropyridine-3,5-dicarboxamide]
6 | 0.1 to 1 µM | CNC(=O)c1cc(C(=O)NCCCN2CCCCC2)cn(Cc2ccccc2)c1=O [Example 45, 1-Benzyl-N^3-methyl-2-oxo-N^5-(3-(piperidin-1-yl)propyl)-1,2-dihydropyridine-3,5-dicarboxamide hydrochloride]
7 | 0.1 to 1 µM | CNC(=O)c1cc(C(=O)NC[C@H]2CCCOC2)cn(Cc2ccccc2)c1=O [Example 46, (R)-1-Benzyl-N^3-methyl-2-oxo-N^5-((tetrahydro-2H-pyran-3-yl)methyl)-1,2-dihydropyridine-3,5-dicarboxamide]
8 | 0.1 to 1 µM | CNC(=O)c1cc(C(=O)NC[C@@H]2CCCOC2)cn(Cc2ccccc2)c1=O [Example 47, (S)-1-Benzyl-N^3-methyl-2-oxo-N^5-((tetrahydro-2H-pyran-3-yl)methyl)-1,2-dihydropyridine-3,5-dicarboxamide]
9 | 1 to 100 µM | CNC(=O)c1cc(C(=O)NCC2CCS(=O)(=O)C2)cn(Cc2ccccc2)c1=O (stereo not shown) [Example 48, 1-Benzyl-N^5-((1,1-dioxidotetrahydrothiophen-3-yl)methyl)-N^3-methyl-2-oxo-1,2-dihydropyridine-3,5-dicarboxamide]
10 | 0.1 to 1 µM | CNC(=O)c1cc(C(=O)NCC2CCOCC2)cn(Cc2ccccc2)c1=O [Example 49, 1-Benzyl-N^3-methyl-2-oxo-N^5-((tetrahydro-2H-pyran-4-yl)methyl)-1,2-dihydroopyridine-3,5-dicarboxamide]
11 | 0.1 to 1 µM | CNC(=O)c1cc(C(=O)NC2CCCOC2)cn(Cc2ccccc2)c1=O (stereo not shown) [Example 50, 1-Benzyl-N^3-methyl-2-oxo-N^5-(tetrahydro-2H-pyran-3-yl)-1,2-dihdyropyridine-3,5-dicarboxamide]
12 | 0.1 to 1 µM | CNC(=O)c1cc(C(=O)NCCCN2CCN(C)CC2)cn(Cc2ccccc2)c1=O [Example 51, 1-Benzyl-N^3-methyl-N^5-(3-(4-methylpiperazin-1-yl)propyl)-2-oxo-1,2-dihydropyridine-3,5-dicarboxamide]
13 | 0.1 to 1 µM | CNC(=O)c1cc(C(=O)NCCCN2CCS(=O)(=O)CC2)cn(Cc2ccccc2)c1=O [Example 52, 1-Benzyl-N^5-(3-(1,1-dioxidothiomorpholino)propyl)-N^3-methyl-2-oxo-1,2-dihydropyridine-3,5-dicarboxamide]
14 | 1 to 100 µM | CNC(=O)c1cc(C(=O)NCC2CCS(=O)(=O)CC2)cn(Cc2ccccc2)c1=O [Example 53, 1-Benzyl-N^5-((1,1-dioxidotetrahydro-2H-thiopyran-4-yl)methyl)-N^3-methyl-2-oxo-1,2-dihydropyridine-3,5-dicarboxamide]
15 | ≤ 0.1 µM | CNC(=O)c1cc(C(=O)NCCC2CCNCC2)cn(Cc2cccc3[nH]ccc23)c1=O [Example 56, 1-((1H-Indol-4-yl)methyl)-N^3-methyl-2-oxo-N5-(2-(piperidin-4-yl)ethyl)-1,2-dihydropyridine-3,5-dicarboxamide]
16 | ≤ 0.1 µM | CNC(=O)c1cc(C(=O)NCCCC2(O)CCNCC2)cn(Cc2ccccc2)c1=O [Example 57, 1-Benzyl-N^5-(3-(4-hydroxypiperidin-4-yl)propyl)-N^3-methyl-2-oxo-1,2-dihydropyridine-3,5-dicarboxamide]
17 | 0.1 to 1 µM | CNC(=O)c1cc(C(=O)NCCCC2CCCN(C(=O)OC(C)(C)C)C2)cn(Cc2ccccc2)c1=O (stereo not shown) [Example 59, tert-Butyl 3-(3-(1-benzyl-5-(methylcarbamoyl)-6-oxo-1,6-dihydropyridine-3-carboxamido)propyl)piperidine-1-carboxylate]
18 | ≤ 0.1 µM | CNC(=O)c1cc(C(=O)NCCCC2(F)CCNCC2)cn(Cc2ccccc2)c1=O [Example 61, 1-Benzyl-N^5-(3-(4-fluoropiperidin-4-yl)propyl)-N^3-methyl-2-oxo-1,2-dihydropyridine-3,5-dicarboxamide hydrochloride]
19 | 0.1 to 1 µM | CNC(=O)c1cc(C(=O)NCCC2CN(C)CCO2)cn(Cc2ccccc2)c1=O (stereo not shown) [Example 64, 1-benzyl-N^3-methyl-N^5-(2-(4-methylmorpholin-2-yl)ethyl)-2-oxo-1,2-dihydropyridine-3,5-dicarboxamide]

Row | IC50 | Structure (SMILES)
20 | 0.1 to 1 µM | CNC(=O)c1cc(C(=O)NCCC2CN(C(C)=O)CCO2)cn(Cc2ccccc2)c1=O (stereo not shown) [Example 65, N^5-(2-(4-acetylmorpholin-2-yl)ethyl)-1-benzyl-N^3-methyl-2-oxo-1,2-dihydropyridine-3,5-dicarboxamide]
21 | 0.1 to 1 µM | CNC(=O)c1cc(C(=O)NCCC2CNCCO2)cn(Cc2ccccc2)c1=O (stereo not shown) [Example 66, 1-benzyl-N^3-methyl-N^5-(2-(morpholin-2-yl)ethyl)-2-oxo-1,2-dihydropyridine-3,5-dicarboxamide hydrochloride]
22 | 0.1 to 1 µM | CNC(=O)c1cc(C(=O)NCCOC2CCNC2)cn(Cc2ccccc2)c1=O (stereo not shown) [Example 67, 1-benzyl-N3-methyl-2-oxo-N5-(2-(pyrrolidin-3-yloxy)ethyl)-1,2-dihydropyridine-3,5-dicarboxamide, hydrochloride]
23 | 0.1 to 1 µM | CNC(=O)c1cc(C(=O)NCCOC2CCCNC2)cn(Cc2ccccc2)c1=O (stereo not shown) [Example 68, 1-benzyl-N^3-methyl-2-oxo-N^5-(2-(piperidin-3-yloxy)ethyl)-1,2-dihydropyridine-3,5-dicarboxamide]
24 | ≤ 0.1 µM | CNC(=O)c1cc(C(=O)N[C@H]2[C@@H]3COC[C@@H]32)cn(Cc2ccccc2)c1=O [Example 69, 1-Benzyl-N^5-((1R,5S,6r)-3-oxabicyclo[3.1.0]hexan-6-yl)-N^3-methyl-2-oxo-1,2-dihydropyridine-3,5-dicarboxamide]
25 | ≤ 0.1 µM | CNC(=O)c1cc(C(=O)NCCCC2CCCN(C)C2)cn(Cc2ccccc2)c1=O (stereo not shown) [Example 70, 1-Benzyl-N^3-methyl-N^5-(3-(1-methylpiperidin-3-yl)propyl)-2-oxo-1,2-dihydropyridine-3,5-dicarboxamide]
26 | ≤ 0.1 µM | CNC(=O)c1cc(C(=O)NCCCC2CCCN(CCF)C2)cn(Cc2ccccc2)c1=O (stereo not shown) [Example 71]
27 | ≤ 0.1 µM | CNC(=O)c1cc(C(=O)N[C@H]2[C@@H]3COC[C@@H]32)cn(Cc2cccc(OC)c2)c1=O [Example 72, N5-((1R,5S,6r)-3-Oxabicyclo[3.1.0]hexan-6-yl)-1-(3-methoxybenzyl)-N^3-methyl-2-oxo-1,2-dihydropyridine-3,5-dicarboxamide]
28 | ≤ 0.1 µM | CNC(=O)c1cc(C(=O)NCCCC2CCN(C(C)=O)CC2)cn(Cc2cccc3[nH]ccc23)c1=O [Example 74]
29 | ≤ 0.1 µM | CNC(=O)c1cc(C(=O)N[C@H]2[C@@H]3CN(C(=O)OC(C)(C)C)C[C@@H]32)cn(Cc2ccccc2)c1=O [Example 75, (1R,5S,6s)-Tert-butyl 6-(1-benzyl-5-(methylcarbamoyl)-6-oxo-1,6-dihydropyridine-3-carboxamido)-3-azabicyclo[3.1.0]hexane-3-carboxylate]
30 | ≤ 0.1 µM | CNC(=O)c1cc(C(=O)N[C@H]2[C@@H]3CNC[C@@H]32)cn(Cc2ccccc2)c1=O [Example 76, 1-Benzyl-N^5-((1R,5S,6s)-3-azabicyclo[3.1.0]hexan-6-yl)-N^3-methyl-2-oxo-1,2-dihydropyridine-3,5-dicarboxamide]
31 | 0.1 to 1 µM | CCNC(=O)c1cc(C(=O)NCCCC2CCNCC2)cn(Cc2ccccc2)c1=O [Example 78, 1-benzyl-N^3-ethyl-2-oxo-N^5-(3-(piperidin-4-yl)propyl)-1,2-dihydropyridine-3,5-dicarboxamide]
32 | ≤ 0.1 µM | CNC(=O)c1cc(C(=O)N[C@H]2[C@@H]3CN(C(=O)OC(C)(C)C)C[C@@H]32)cn(Cc2cccc3[nH]ccc23)c1=O [Example 79, (1R,5S,6s)-tert-Butyl 6-(1-((1H-indol-4-yl)methyl)-5-(methylcarbamoyl)-6-oxo-1,6-dihydropyridine-3-carboxamido)-3-azabicyclo[3.1.0]hexane-3-carboxylate]
33 | ≤ 0.1 µM | CNC(=O)c1cc(C(=O)N[C@H]2[C@@H]3CNC[C@@H]32)cn(Cc2cccc3[nH]ccc23)c1=O [Example 80]
34 | ≤ 0.1 µM | CNC(=O)c1cc(C(=O)N[C@H]2[C@@H]3CN(C(C)=O)C[C@@H]32)cn(Cc2cccc3[nH]ccc23)c1=O [Example 81, 1-((1H-Indol-4-yl)methyl)-N^5-((1R,5S,6s)-3-acetyl-3-azabicyclo[3.1.0]hexan-6-yl)-N^3-methyl-2-oxo-1,2-dihydropyridine-3,5-dicarboxamide]
35 | ≤ 0.1 µM | CCNC(=O)c1cc(C(=O)NCCC[C@]2(F)CCCNC2)cn(Cc2ccccc2)c1=O [Example 82]
36 | 0.1 to 1 µM | CCNC(=O)c1cc(C(=O)NCC[C@@H]2CNCCO2)cn(Cc2ccccc2)c1=O [Example 83, (R)-1-benzyl-N^3-ethyl-N^5-(2-(morpholin-2-yl)ethyl)-2-oxo-1,2-dihydropyridine-3,5-dicarboxamide]
37 | ≤ 0.1 µM | CCNC(=O)c1cc(C(=O)NCCC[C@@H]2CNCCO2)cn(Cc2ccccc2)c1=O [Example 84, (R)-1-benzyl-N^3-ethyl-N^5-(3-(morpholin-2-yl)propyl)-2-oxo-1,2-dihydropyridine-3,5-dicarboxamide]
